According to ChEMBL document CHEMBL4428025 (J Med Chem, 2016):

Legend:
[1] = Oral bioavailability in Wistar rat at 0.3 mg/kg; format: ADME, organism-based; conditions: in vivo
[2] = Oral bioavailability in cynomolgus monkey at 0.3 mg/kg; format: ADME, organism-based, Macaca fascicularis; conditions: in vivo
[3] = Ratio of drug level in brain to plasma in CD rat at 10 to 70 mg/kg, po administered through gavage measured at 6 hrs; format: ADME, organism-based; conditions: read-out: BPR

| Structure (SMILES) | bioavailability [1] [%] | bioavailability [2] [%] | Kp at 6 h [3] |
| --- | --- | --- | --- |
| O=C1NCN(c2ccccc2)C12CCN([C@@H]1CC[C@H]3CCCc4cccc1c43)CC2 | 4 | 1 | – |
| NC(=O)C1(c2ccccc2)CC2CCC(C1)N2C(c1ccccc1Cl)c1ccccc1Cl (stereo not drawn) | – | – | 0.43 to 0.59 |
